Assay results published in PubChem BioAssay (NCI).
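These data come from cells grown in 96-well plates and exposed to compound for 48 hours at five concentrations. Here, GI50 denotes the concentration required for 50% inhibition of growth. TGI is the concentration that stops growth completely.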

Columns and labels:
Assay in all cases: inhibition of tumour cell growth, NCI panel, 48 h
SR leukemia = test system: SR leukemia
ACHN renal = test system: ACHN renal
MOLT-4 leukemia = test system: MOLT-4 leukemia
HOP-62 NSCLC = test system: HOP-62 NSCLC
HT29 colon = test system: HT29 colon
EKVX NSCLC = test system: EKVX NSCLC
HL-60(TB) leukemia = test system: HL-60(TB) leukemia
MDA-MB-231 breast = test system: MDA-MB-231 breast
T-47D breast = test system: T-47D breast
SNB-75 CNS = test system: SNB-75 CNS

| Compound | TGI (SR leukemia) | TGI (ACHN renal) | TGI (MOLT-4 leukemia) | TGI (HOP-62 NSCLC) | TGI (HT29 colon) | TGI (EKVX NSCLC) | TGI (HL-60(TB) leukemia) | TGI (MDA-MB-231 breast) | TGI (T-47D breast) | TGI (SNB-75 CNS) | GI50 (SR leukemia) | GI50 (MDA-MB-231 breast) | GI50 (ACHN renal) | GI50 (MOLT-4 leukemia) | GI50 (HT29 colon) | GI50 (SNB-75 CNS) | GI50 (EKVX NSCLC) | GI50 (HL-60(TB) leukemia) | GI50 (T-47D breast) |
| --- | --- | --- | --- | --- | --- | --- | --- | --- | --- | --- | --- | --- | --- | --- | --- | --- | --- | --- | --- |
| COc1ccc(/C=C/C(=O)c2sc(-n3nc(-c4ccccc4)cc3-c3ccccc3)nc2C)cc1OC | 78.2 µM | > 100 µM | 64.8 µM | > 100 µM | > 100 µM | > 100 µM | 62.2 µM | – | – | – | – | – | – | – | – | – | – | – | – |
| CC(O)(C(=O)N(O)c1ccc(Cl)cc1)c1ccc(Cl)cc1 (configuration not stated) | 36.1 µM | 62.3 µM | 42.9 µM | 93 µM | > 100 µM | > 100 µM | 35.9 µM | 56.7 µM | > 100 µM | – | – | – | – | – | – | – | – | – | – |
| Brc1ccc2c(c1)-c1nc3c(cc1CC2)CCc1ccc(Br)cc1-3 | – | > 100 µM | > 100 µM | > 100 µM | – | > 100 µM | – | > 100 µM | > 100 µM | > 100 µM | – | – | – | – | – | – | – | – | – |
| COc1cc2c(cc1O)CC[n+]1cc3c(OC)c(OC)ccc3cc1-2 | – | > 100 µM | > 100 µM | – | > 100 µM | > 100 µM | > 100 µM | > 100 µM | > 100 µM | > 100 µM | – | – | – | – | – | – | – | – | – |
| CCOC(=O)/C(=C/c1ccco1)P(=O)(OCC)OCC | > 100 µM | > 100 µM | > 100 µM | – | > 100 µM | > 100 µM | > 100 µM | – | – | > 100 µM | – | – | – | – | – | – | – | – | – |
| NC(CCSCC(F)F)C(=O)O (configuration not stated) | > 100 µM | > 100 µM | > 100 µM | > 100 µM | > 100 µM | > 100 µM | > 100 µM | – | – | > 100 µM | – | – | – | – | – | – | – | – | – |
| C=C1CC=CC(C)(C)C1C/C=C(\C)C(O)CBr (configuration not stated) | 88.5 µM | > 100 µM | > 100 µM | > 100 µM | > 100 µM | > 100 µM | > 100 µM | > 100 µM | – | – | – | – | – | – | – | – | – | – | – |
| OCC1OC(O[C@H]2CN3[C@H](O)[C@@H](O)[C@H](O)[C@H]3C2O)C(O)C(O)C1O (some centres not stated) | > 100 µM | > 100 µM | > 100 µM | > 100 µM | > 100 µM | > 100 µM | > 100 µM | > 100 µM | > 100 µM | – | – | – | – | – | – | – | – | – | – |
| Nc1nc(Nc2ccc(OCc3cccc(F)c3)cc2)c2c(n1)[nH]c1ccc(O)cc12 | 5.87 µM | 12 µM | 8.34 µM | – | 4.49 µM | 29.4 µM | 4.21 µM | 7.33 µM | 4.5 µM | 3.01 µM | 2.13 µM | 2.71 µM | 3.16 µM | 2.77 µM | 2.13 µM | 1.53 µM | 8.86 µM | 2.01 µM | 1.79 µM |
| Cc1cc(C)nc(NS(=O)(=O)c2ccc(Nc3c4ccccc4nc4c(C(=O)N5CCN(CCOS(C)(=O)=O)CC5)ccc(Cl)c34)cc2)n1 | > 100 µM | > 100 µM | > 100 µM | > 100 µM | > 100 µM | – | > 100 µM | – | – | > 100 µM | – | – | – | – | – | – | – | – | – |
| NC(=O)NC(=NCc1ccccc1)NCc1ccccc1 | – | > 100 µM | – | > 100 µM | > 100 µM | > 100 µM | – | – | – | – | – | – | – | – | – | – | – | – | – |
| COC(=O)/C(=N\NC(=S)NN)C(C(=O)C(=O)Nc1ccccc1C(N)=O)c1nc2ccccc2[nH]c1=O (configuration not stated) | > 100 µM | > 100 µM | > 100 µM | – | – | > 100 µM | – | – | – | – | – | – | – | – | – | – | – | – | – |
| O=C(NCCCNCCCCNCCCNC(=O)C(F)(F)F)C(F)(F)F | – | > 100 µM | – | > 100 µM | > 100 µM | > 100 µM | > 100 µM | > 100 µM | > 100 µM | > 100 µM | – | – | – | – | – | – | – | – | – |
| O=C1NN=C(c2c[nH]c3ccccc23)CC1NCc1ccccc1 (configuration not stated) | – | > 100 µM | > 100 µM | > 100 µM | > 100 µM | – | > 100 µM | > 100 µM | > 100 µM | > 100 µM | – | – | – | – | – | – | – | – | – |
| NC(=S)N=Nc1c(O)cc(Nc2ccc(Cl)cc2Cl)c2ccccc12 | – | 27.5 µM | > 100 µM | 22.4 µM | > 100 µM | 94.4 µM | > 100 µM | 27.6 µM | 93.6 µM | 78.5 µM | – | – | – | – | – | – | – | – | – |
| NS(=O)(=O)c1nnc(NSc2ccc([N+](=O)[O-])cc2)s1 | > 100 µM | > 100 µM | > 100 µM | > 100 µM | – | > 100 µM | – | > 100 µM | > 100 µM | – | – | – | – | – | – | – | – | – | – |
| COC(=O)c1cc(C(=O)OC)cc(-c2ccc3c(c2)-c2nc4c(c(-c5ccc(OC)cc5)c2CC3)CCc2ccc(-c3cc(C(=O)OC)cc(C(=O)OC)c3)cc2-4)c1 | – | > 100 µM | – | > 100 µM | – | 31.3 µM | – | > 100 µM | > 100 µM | > 100 µM | – | – | – | – | – | – | – | – | – |
| COC(=O)C1=C(C)N2[C@H](C(=O)O)CS[C@@]2(C)[C@H](C(=O)OC)[C@H]1c1cccc([N+](=O)[O-])c1 | > 100 µM | > 100 µM | > 100 µM | > 100 µM | > 100 µM | > 100 µM | – | > 100 µM | > 100 µM | > 100 µM | – | – | – | – | – | – | – | – | – |
| CCOC(=O)C(NC(=O)c1ccc(N=NN(C)C)cc1)C(C)C (configuration not stated) | > 100 µM | > 100 µM | > 100 µM | > 100 µM | > 100 µM | > 100 µM | > 100 µM | – | – | > 100 µM | – | – | – | – | – | – | – | – | – |
| O=[N+]([O-])c1ccc2nc3c(nc2c1)-c1c2ccccc2cc2cccc-3c12 | – | – | 31.7 µM | 77.2 µM | > 100 µM | > 100 µM | > 100 µM | 64.2 µM | 4.11 µM | – | – | – | – | – | – | – | – | – | – |
| Cc1ncc([N+](=O)[O-])n1CCNC(=O)CCCCn1ccnc1[N+](=O)[O-] | > 100 µM | > 100 µM | > 100 µM | > 100 µM | > 100 µM | – | > 100 µM | > 100 µM | > 100 µM | > 100 µM | – | – | – | – | – | – | – | – | – |
| O=C(O)c1cc2ccccc2c(S(=O)(=O)O)c1O | – | > 100 µM | > 100 µM | > 100 µM | > 100 µM | > 100 µM | > 100 µM | > 100 µM | > 100 µM | > 100 µM | – | – | – | – | – | – | – | – | – |
| O=c1oc2ccccc2c2nc3ccccc3cc12 | > 100 µM | > 100 µM | > 100 µM | – | > 100 µM | > 100 µM | > 100 µM | > 100 µM | > 100 µM | – | – | – | – | – | – | – | – | – | – |
| Clc1cccc(C2ON=C(c3ccccc3)N2C23CC4CC(CC(C4)C2)C3)c1Cl (configuration not stated) | – | > 10 µM | > 10 µM | > 10 µM | > 10 µM | > 10 µM | – | > 10 µM | > 10 µM | > 10 µM | – | – | – | – | – | – | – | – | – |
